Experimental data taken from ChEMBL document CHEMBL1201862, “PubChem BioAssay data set” (2004).
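Compound exposure: 48 hours, 5 concentrations, 96-well plates. GI50: concentration for 50% inhibition of growth.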 The source made the active and inactive calls. Rule as the data show it: active = GI50 up to about 1.1 µM and inactive = higher.

How the values were obtained:
Assay in all cases: growth of human tumour cells (NCI), 48 h
K562 = tested on: K562
SW-620 = tested on: SW-620
SK-MEL-5 = tested on: SK-MEL-5
HOP-62 = tested on: HOP-62
SNB-75 = tested on: SNB-75
SF-268 = tested on: SF-268
OVCAR-8 = tested on: OVCAR-8
RXF 393 = tested on: RXF 393
SF-539 = tested on: SF-539
UO-31 = tested on: UO-31
NCI-H522 = tested on: NCI-H522
T47D = tested on: T47D
OVCAR-3 = tested on: OVCAR-3
M14 = tested on: M14
IGROV-1 = tested on: IGROV-1
SF-295 = tested on: SF-295
NCI-H23 = tested on: NCI-H23
MDA-MB-435 = tested on: MDA-MB-435
CCRF-CEM = tested on: CCRF-CEM
Malme-3M = tested on: Malme-3M
UACC-62 = tested on: UACC-62
SR = tested on: SR
TK-10 = tested on: TK-10
SN12C = tested on: SN12C
PC-3 = tested on: PC-3
Hs-578T = tested on: Hs-578T
KM12 = tested on: KM12
EKVX = tested on: EKVX
LOX IMVI = tested on: LOX IMVI
OVCAR-4 = tested on: OVCAR-4
OVCAR-5 = tested on: OVCAR-5
RPMI-8226 = tested on: RPMI-8226
CAKI-1 = tested on: CAKI-1
NCI/ADR-RES = tested on: NCI/ADR-RES
U-251 = tested on: U-251
MDA-MB-231 = tested on: MDA-MB-231
NCI-H460 = tested on: NCI-H460
DU-145 = tested on: DU-145
HCT-116 = tested on: HCT-116
SK-OV-3 = tested on: SK-OV-3
HL-60 = tested on: HL-60
HCC 2998 = tested on: HCC 2998
COLO 205 = tested on: COLO 205
BT-549 = tested on: BT-549
HT-29 = tested on: HT-29
HOP-92 = tested on: HOP-92
HCT-15 = tested on: HCT-15
NCI-H226 = tested on: NCI-H226
UACC-257 = tested on: UACC-257
SNB-19 = tested on: SNB-19
MDA-N = tested on: MDA-N
ACHN = tested on: ACHN
SK-MEL-2 = tested on: SK-MEL-2
MOLT-4 = tested on: MOLT-4
786-0 = tested on: 786-0
SK-MEL-28 = tested on: SK-MEL-28
MCF7 = tested on: MCF7
A549 = tested on: A549
A498 = tested on: A498

CCN(CC)CCCn1c(=O)c2ccccc2n2c3c(=O)n(C)c(=O)n(C)c3nc12
GI50 (K562): 6.79 µM (inactive)
GI50 (SW-620): 3.42 µM (inactive)
GI50 (SK-MEL-5): 2.22 µM (inactive)
GI50 (HOP-62): 2.77 µM (inactive)
GI50 (SNB-75): 5.92 µM (inactive)
GI50 (SF-268): 5.9 µM (inactive)
GI50 (OVCAR-8): 5.08 µM (inactive)
GI50 (RXF 393): 16 µM (inactive)
GI50 (SF-539): 7.73 µM (inactive)
GI50 (UO-31): 4.47 µM (inactive)
GI50 (NCI-H522): 5.74 µM (inactive)
GI50 (T47D): 17.1 µM (inactive)
GI50 (OVCAR-3): 14.4 µM (inactive)
GI50 (M14): 12.3 µM (inactive)
GI50 (IGROV-1): 6.58 µM (inactive)
GI50 (SF-295): 3.43 µM (inactive)
GI50 (NCI-H23): 4.67 µM (inactive)
GI50 (MDA-MB-435): 14.2 µM (inactive)
GI50 (CCRF-CEM): 3.03 µM (inactive)
GI50 (Malme-3M): 8.99 µM (inactive)
GI50 (UACC-62): 4.3 µM (inactive)
GI50 (SR): 0.394 µM (active)
GI50 (TK-10): 15.8 µM (inactive)
GI50 (SN12C): 2.85 µM (inactive)
GI50 (PC-3): 8.39 µM (inactive)
GI50 (Hs-578T): 14 µM (inactive)
GI50 (KM12): 4.63 µM (inactive)
GI50 (EKVX): 15 µM (inactive)
GI50 (LOX IMVI): 3.03 µM (inactive)
GI50 (OVCAR-4): 6.95 µM (inactive)
GI50 (OVCAR-5): 12.1 µM (inactive)
GI50 (RPMI-8226): 4.66 µM (inactive)
GI50 (CAKI-1): 1.43 µM (inactive)
GI50 (NCI/ADR-RES): 13.2 µM (inactive)
GI50 (U-251): 3.03 µM (inactive)
GI50 (MDA-MB-231): 13.8 µM (inactive)
GI50 (NCI-H460): 0.355 µM (active)
GI50 (DU-145): 1.57 µM (inactive)
GI50 (HCT-116): 4.65 µM (inactive)
GI50 (SK-OV-3): 3.37 µM (inactive)
GI50 (HL-60): 1.58 µM (inactive)
GI50 (HCC 2998): 8.95 µM (inactive)
GI50 (COLO 205): 5.09 µM (inactive)
GI50 (BT-549): 2.47 µM (inactive)
GI50 (HT-29): 6.56 µM (inactive)
GI50 (HOP-92): 3.9 µM (inactive)
GI50 (HCT-15): 5.83 µM
GI50 (NCI-H226): 2.7 µM (inactive)
GI50 (UACC-257): 10.9 µM (inactive)
GI50 (SNB-19): 4.88 µM (inactive)
GI50 (MDA-N): 14.2 µM (inactive)
GI50 (ACHN): 1.34 µM (inactive)
GI50 (SK-MEL-2): 18.3 µM (inactive)
GI50 (MOLT-4): 0.619 µM (active)
GI50 (786-0): 2.21 µM (inactive)
GI50 (SK-MEL-28): 15.7 µM (inactive)
GI50 (MCF7): 4.76 µM (inactive)
GI50 (A549): 0.959 µM (active)

COc1cc(OC)cc(N(C)Cc2cnc3nc(N)nc(N)c3c2C)c1
GI50 (SW-620): 0.585 µM (active)
GI50 (SK-MEL-5): 0.615 µM (active)
GI50 (HOP-62): 0.995 µM (active)
GI50 (SNB-75): 0.0571 µM (active)
GI50 (SF-268): 0.745 µM (active)
GI50 (OVCAR-8): 0.741 µM (active)
GI50 (SF-539): 0.385 µM (active)
GI50 (UO-31): 5.52 µM (inactive)
GI50 (NCI-H522): 2.21 µM (inactive)
GI50 (T47D): 38.3 µM (inactive)
GI50 (OVCAR-3): 9.66 µM (inactive)
GI50 (M14): 0.652 µM (active)
GI50 (IGROV-1): 0.838 µM (active)
GI50 (SF-295): 0.535 µM (active)
GI50 (NCI-H23): 1.25 µM (inactive)
GI50 (MDA-MB-435): 0.759 µM (active)
GI50 (CCRF-CEM): 2.47 µM (inactive)
GI50 (Malme-3M): 0.817 µM (active)
GI50 (UACC-62): 0.719 µM (active)
GI50 (SR): 0.541 µM (active)
GI50 (SN12C): 0.929 µM (active)
GI50 (PC-3): 0.565 µM (active)
GI50 (Hs-578T): > 68.5 µM (inactive)
GI50 (KM12): 3.85 µM (inactive)
GI50 (EKVX): > 47.3 µM (inactive)
GI50 (LOX IMVI): 1.16 µM (inactive)
GI50 (OVCAR-4): 20.1 µM (inactive)
GI50 (OVCAR-5): 0.757 µM (active)
GI50 (RPMI-8226): > 22 µM (inactive)
GI50 (CAKI-1): 2.04 µM (inactive)
GI50 (NCI/ADR-RES): 5.65 µM (inactive)
GI50 (U-251): 0.543 µM (active)
GI50 (MDA-MB-231): 21.3 µM (inactive)
GI50 (NCI-H460): 0.474 µM (active)
GI50 (DU-145): 4.71 µM (inactive)
GI50 (HCT-116): 0.358 µM (active)
GI50 (SK-OV-3): 13.6 µM (inactive)
GI50 (HCC 2998): 3.52 µM (inactive)
GI50 (COLO 205): 12.6 µM (inactive)
GI50 (BT-549): > 25.7 µM (inactive)
GI50 (HT-29): 2.65 µM (inactive)
GI50 (HOP-92): 13.3 µM (inactive)
GI50 (HCT-15): 1.27 µM
GI50 (NCI-H226): > 41.1 µM (inactive)
GI50 (UACC-257): 1.56 µM (inactive)
GI50 (SNB-19): 12.9 µM (inactive)
GI50 (MDA-N): 0.631 µM (active)
GI50 (ACHN): 0.746 µM (active)
GI50 (A498): 18.7 µM (inactive)
GI50 (SK-MEL-2): > 51.5 µM (inactive)
GI50 (MOLT-4): 0.741 µM (active)
GI50 (786-0): 0.427 µM (active)
GI50 (MCF7): 0.92 µM (active)
GI50 (A549): 0.421 µM (active)
